The structures appear in SMILES notation. Where a name gives a salt, the structure may show the parent alone. Read-outs that look alike come from different tables or passages of the source.

Type in all cases: biochemical
Experiment [1] has as its target T1, recombinant human MAO-B (monoamine oxidase-B) (Homo sapiens, UniProt P27338).
T1 construct: purchased Sigma-Aldrich
T1 sequence (P27338 1-520): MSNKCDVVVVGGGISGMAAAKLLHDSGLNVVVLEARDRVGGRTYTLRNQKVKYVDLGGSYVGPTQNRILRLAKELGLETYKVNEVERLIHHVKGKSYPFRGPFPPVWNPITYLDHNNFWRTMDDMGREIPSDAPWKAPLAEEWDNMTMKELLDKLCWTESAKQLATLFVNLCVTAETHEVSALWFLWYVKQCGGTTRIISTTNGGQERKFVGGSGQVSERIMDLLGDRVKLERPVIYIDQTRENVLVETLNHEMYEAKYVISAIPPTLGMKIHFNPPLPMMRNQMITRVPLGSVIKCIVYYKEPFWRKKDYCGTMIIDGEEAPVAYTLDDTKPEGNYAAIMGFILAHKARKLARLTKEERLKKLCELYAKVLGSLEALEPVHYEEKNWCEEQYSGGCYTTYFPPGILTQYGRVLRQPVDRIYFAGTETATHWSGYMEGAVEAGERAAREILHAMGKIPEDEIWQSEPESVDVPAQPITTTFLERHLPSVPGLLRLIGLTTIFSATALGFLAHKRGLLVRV
In words: Activity on recombinant human MAO-B, Amplex Red method, 1 mM benzylamine substrate. Particulars: read-out: Inhibitory Activity (IC50, nM) MAO-B. The method, boiled down:
(§1)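 Enzyme in pH 7.4 phosphate buffer; 30 min, 37° C with compound (DMSO <1%); start with 200 uM Amplex Red + 1 U/mL HRP + tyramine 0.5 mM (MAO-A) or benzylamine 1 mM (MAO-B); kinetic read ex 544/em 590, 1-2 h; % rate decrease vs DMSO control → IC50, 4-parameter fit.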

For experiment [2], the target named is T2, recombinant human DAO (diamine oxidase) (Homo sapiens, UniProt P19801).
T2 construct: purchased R&D systems
T2 sequence (P19801 20-751): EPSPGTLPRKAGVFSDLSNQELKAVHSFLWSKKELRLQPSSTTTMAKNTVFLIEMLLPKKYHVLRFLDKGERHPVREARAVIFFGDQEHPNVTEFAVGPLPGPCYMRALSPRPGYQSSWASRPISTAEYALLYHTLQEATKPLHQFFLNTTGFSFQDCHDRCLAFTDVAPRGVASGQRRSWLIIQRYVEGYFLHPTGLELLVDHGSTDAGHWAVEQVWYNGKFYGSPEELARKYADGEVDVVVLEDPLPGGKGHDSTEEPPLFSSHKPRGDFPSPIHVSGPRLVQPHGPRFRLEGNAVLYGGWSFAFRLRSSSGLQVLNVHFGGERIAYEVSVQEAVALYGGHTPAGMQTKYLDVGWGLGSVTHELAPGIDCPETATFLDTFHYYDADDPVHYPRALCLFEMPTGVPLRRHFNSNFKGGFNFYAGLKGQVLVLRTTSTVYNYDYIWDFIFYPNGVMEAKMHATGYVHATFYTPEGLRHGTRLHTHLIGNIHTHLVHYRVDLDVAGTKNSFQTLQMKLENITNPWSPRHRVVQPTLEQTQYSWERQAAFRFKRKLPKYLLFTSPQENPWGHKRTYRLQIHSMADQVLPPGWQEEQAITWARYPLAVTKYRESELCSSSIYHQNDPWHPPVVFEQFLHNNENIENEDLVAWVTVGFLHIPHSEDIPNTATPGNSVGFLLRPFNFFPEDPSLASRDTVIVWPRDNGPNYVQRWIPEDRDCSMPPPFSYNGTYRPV
Nature of the experiment: Activity on recombinant human DAO, Amplex Red method, 1 mM putrescine substrate. Particulars: recombinant human DAO, read-out: Inhibitory Activity (IC50, nM) DAO. The method, boiled down: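 Inhibition of recombinant human DAO (diamine oxidase, R&D systems) was assessed with the Amplex Red Hydrogen Peroxide Assay Kit. Hydrogen peroxide produced from 1 mM putrescine was detected through an HRP-coupled reaction that converts Amplex Red into fluorescent resorufin, read at 544 nm excitation and 590 nm emission. IC50 values came from four-parameter logistic fits in GraphPad Prism.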

The target in experiment [3] is T3, recombinant human MAO-A (monoamine oxidase-A) (Homo sapiens, UniProt P21397).
T3 construct: purchased Sigma-Aldrich
T3 sequence (P21397 1-527): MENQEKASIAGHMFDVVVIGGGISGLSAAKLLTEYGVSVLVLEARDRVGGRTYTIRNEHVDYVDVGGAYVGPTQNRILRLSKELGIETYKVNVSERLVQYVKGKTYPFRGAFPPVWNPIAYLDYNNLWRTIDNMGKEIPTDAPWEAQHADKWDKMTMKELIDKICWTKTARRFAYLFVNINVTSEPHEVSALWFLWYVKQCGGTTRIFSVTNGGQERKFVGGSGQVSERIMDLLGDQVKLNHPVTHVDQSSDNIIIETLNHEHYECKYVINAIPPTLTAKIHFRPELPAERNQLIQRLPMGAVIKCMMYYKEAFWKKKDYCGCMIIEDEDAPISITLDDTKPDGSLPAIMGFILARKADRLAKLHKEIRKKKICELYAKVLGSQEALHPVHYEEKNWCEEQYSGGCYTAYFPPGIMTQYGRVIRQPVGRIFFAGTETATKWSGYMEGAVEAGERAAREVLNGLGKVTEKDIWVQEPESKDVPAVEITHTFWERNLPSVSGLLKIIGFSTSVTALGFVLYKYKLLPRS
In words: Activity on recombinant human MAO-A, Amplex Red method, 0.5 mM tyramine substrate. Particulars: read-out: Inhibitory Activity (IC50, nM) MAO-A. An outline of the steps:
as §1

For the next experiment, the target named is T4, recombinant human VAP-1 (Homo sapiens, UniProt Q16853).
T4 construct: purchased R&D systems
T4 sequence (Q16853 1-763): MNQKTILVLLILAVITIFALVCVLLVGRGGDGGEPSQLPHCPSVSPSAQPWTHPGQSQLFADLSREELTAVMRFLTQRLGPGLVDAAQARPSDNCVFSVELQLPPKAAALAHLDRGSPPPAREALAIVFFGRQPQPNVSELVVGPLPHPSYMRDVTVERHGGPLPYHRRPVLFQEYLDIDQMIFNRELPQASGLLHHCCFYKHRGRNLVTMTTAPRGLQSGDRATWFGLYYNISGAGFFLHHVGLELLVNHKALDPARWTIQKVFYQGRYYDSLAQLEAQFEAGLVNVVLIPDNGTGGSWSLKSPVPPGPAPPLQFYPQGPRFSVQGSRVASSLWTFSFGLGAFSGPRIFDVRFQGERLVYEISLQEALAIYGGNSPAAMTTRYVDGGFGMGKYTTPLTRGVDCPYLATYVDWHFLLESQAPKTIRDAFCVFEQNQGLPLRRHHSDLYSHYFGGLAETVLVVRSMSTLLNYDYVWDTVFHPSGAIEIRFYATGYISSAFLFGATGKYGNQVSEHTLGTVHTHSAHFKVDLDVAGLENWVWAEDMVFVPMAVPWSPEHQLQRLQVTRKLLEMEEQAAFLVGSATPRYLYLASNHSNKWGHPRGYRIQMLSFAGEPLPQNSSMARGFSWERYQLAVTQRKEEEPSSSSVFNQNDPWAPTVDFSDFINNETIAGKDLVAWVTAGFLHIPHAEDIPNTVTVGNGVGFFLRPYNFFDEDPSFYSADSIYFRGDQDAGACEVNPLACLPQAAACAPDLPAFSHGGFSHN
Nature of the experiment: Activity on recombinant human VAP-1, Amplex Red HRP-coupled hydrogen peroxide assay, benzylamine substrate. Particulars: recombinant human VAP-1, benzylamine substrate, read-out: Inhibitory Activity (IC50, nM) human VAP-1. The method, boiled down:
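Enzyme in 50 mM sodium phosphate (pH 7.4) is exposed to test compound for 30 min at 37 °C. Benzylamine (1 mM) with HRP and Amplex Red then starts the reaction, and the fluorescence rate, relative to a DMSO-only control, gives IC50.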

[4] abbreviates: 1 mM putrescine, * = between 10 and 100 nM, ** = between 300 and 1000 nM.

In general, IC50 refers to the concentration at which inhibition is half-maximal. In the case of `Cc1cc(-n2cnn(C/C(=C/F)CN)c2=O)ncc1-c1ccc(-c2nc[nH]n2)cc1` [Example 157, 2-[(2E)-2-(aminomethyl)-3-fluoroprop-2-en-1-yl]-4-{4-methyl-5-[4-(1H-1,2,4-triazol-3-yl)phenyl]pyridin-2-yl}-2,4-dihydro-3H-1,2,4-triazol-3-one], the IC50 in experiment [1] (1 mM benzylamine substrate) is 3790 nM; in experiment [2] (1 mM putrescine substrate), under 100 nM; in experiment [3] (0.5 mM tyramine substrate), over 100000 nM; at recombinant human VAP-1, 0.3 nM.
In the case of `NC/C(=C\F)Cn1ncn(-c2ccc(Br)cc2)c1=O` [Example 2, 2-[(2E)-2-(aminomethyl)-3-fluoroprop-2-en-1-yl]-4-(4-bromophenyl)-2,4-dihydro-3H-1,2,4-triazol-3-one], the half-maximal inhibitory concentration (IC50) was 86 nM in experiment [1] (1 mM benzylamine), 120 nM in experiment [2] (setting [4]), 2900 nM in experiment [3] (0.5 mM tyramine) and 0.9 nM on recombinant human VAP-1 (30 min preincubation at 37° C.).
For the molecule `NC/C(=C/F)Cn1ncn(-c2ccc(Br)cn2)c1=O` [Example 29, 2-[(2Z)-2-(aminomethyl)-3-fluoroprop-2-en-1-yl]-4-(5-bromopyridin-2-yl)-2,4-dihydro-3H-1,2,4-triazol-3-one hydrochloride], the IC50 in experiment [1] (1 mM benzylamine) was determined as 28 nM; in experiment [2] (setting [4]) it was 25 nM; in experiment [3] (0.5 mM tyramine) it was 2600 nM; at recombinant human VAP-1 (30 min preincubation at 37° C.) it was 1.2 nM.
Take `NC/C(=C\F)Cn1ncn(-c2ncc(-c3ccc(-c4nnc[nH]4)cc3)s2)c1=O` [Example 227, 2-[(2E)-2-(aminomethyl)-3-fluoroprop-2-en-1-yl]-4-{5-[4-(4H-1,2,4-triazol-3-yl)phenyl]-1,3-thiazol-2-yl}-2,4-dihydro-3H-1,2,4-triazol-3-one]: the IC50 in experiment [1] (1 mM benzylamine substrate) is 164 nM; in experiment [2] (1 mM putrescine substrate), 0.24 nM; in experiment [3] (0.5 mM tyramine substrate) it was over 100000 nM; at recombinant human VAP-1 it was 0.61 nM.
For `NC/C(=C\F)Cn1ncn(-c2cccc(-c3ccc(-c4ccon4)cc3)n2)c1=O` [Example 176, 2-[(2E)-2-(aminomethyl)-3-fluoroprop-2-en-1-yl]-4-{6-[4-(1,2-oxazol-3-yl)phenyl]pyridin-2-yl}-2,4-dihydro-3H-1,2,4-triazol-3-one] the same measures were 3320 nM, under 30 nM, 7900 nM and 0.83 nM.
In the case of `NC/C(=C\F)Cn1ncn(-c2ccc(Br)c(F)c2)c1=O` [Example 14, 2-[(2E)-2-(aminomethyl)-3-fluoroprop-2-en-1-yl]-4-(4-bromo-3-fluorophenyl)-2,4-dihydro-3H-1,2,4-triazol-3-one hydrochloride], the IC50 was determined as 35 nM in experiment [1] (1 mM benzylamine), 38 nM in experiment [2] (setting [4]), 5200 nM in experiment [3] (0.5 mM tyramine) and 0.96 nM at recombinant human VAP-1 (30 min preincubation at 37° C.).
For the molecule `Cc1cc(-c2ccc3nonc3c2)cnc1-n1cnn(C/C(=C/F)CN)c1=O` [Example 152, 2-[(2E)-2-(aminomethyl)-3-fluoroprop-2-en-1-yl]-4-[5-(2,1,3-benzooxadiazol-5-yl)-3-methylpyridin-2-yl]-2,4-dihydro-3H-1,2,4-triazol-3-one hydrochloride], the IC50 was found to be 314 nM in experiment [1] (1 mM benzylamine substrate), 1300 nM in experiment [2] (1 mM putrescine substrate), 7420 nM in experiment [3] (0.5 mM tyramine substrate) and 0.5 nM at recombinant human VAP-1.
On to `COc1ncc(-c2cccc(-n3cnn(C/C(=C/F)CN)c3=O)c2)cc1C(F)(F)F` [Example 87, 2-[(2E)-2-(aminomethyl)-3-fluoroprop-2-en-1-yl]-4-{3-[6-methoxy-5-(trifluoromethyl)pyridin-3-yl]phenyl}-2,4-dihydro-3H-1,2,4-triazol-3-one hydrochloride], for which the IC50 in experiment [1] (1 mM benzylamine) was 22 nM; in experiment [2] (setting [4]), under 100 nM; in experiment [3] (0.5 mM tyramine), over 100000 nM; at recombinant human VAP-1 (30 min preincubation at 37° C.) it was 1 nM.
Regarding `Cc1ccc(-c2ccc3c(c2)NC(=O)CO3)nc1-n1cnn(C/C(=C/F)CN)c1=O` [Example 216, 6-(6-{1-[(2E)-2-(aminomethyl)-3-fluoroprop-2-en-1-yl]-5-oxo-1,5-dihydro-4H-1,2,4-triazol-4-yl}-5-methylpyridin-2-yl)-2H-1,4-benzoxazin-3 (4H)-one hydrochloride], the IC50 in experiment [1] (1 mM benzylamine substrate) was over 10000 nM; in experiment [2] (1 mM putrescine substrate), 4200 nM; in experiment [3] (0.5 mM tyramine substrate), over 100000 nM; on recombinant human VAP-1 it was 88 nM.
As for `NC/C(=C\F)Cn1ncn(-c2ccc(-c3ccc(-c4nnc[nH]4)cc3)cc2F)c1=O` [Example 43, 2-[(2E)-2-(aminomethyl)-3-fluoroprop-2-en-1-yl]-4-[3-fluoro-4′-(4H-1,2,4-triazol-3-yl)biphenyl-4-yl]-2,4-dihydro-3H-1,2,4-triazol-3-one], the IC50 was 196 nM in experiment [1] (1 mM benzylamine), under 100 nM in experiment [2] (setting [4]), over 100000 nM in experiment [3] (0.5 mM tyramine) and 0.62 nM at recombinant human VAP-1 (30 min preincubation at 37° C.).

The values are drawn from patent publication US11492335B2, “Aryl or heteroaryl triazolone derivatives or salts thereof, or pharmaceutical compositions comprising the same” (YUHAN CORPORATION, priority 2018, dated 2022).
